Target: T1, BTK protein (Homo sapiens, UniProt Q06187)
T1 construct: endogenous in cells; host or cells: TMD-8 cells
Experiment: Measurement of BTK protein degradation ability in TMD-8 cells (Western blotting)
Format: cell-based
Settings: harvested after 24 hours; for BTK degradation (%) 1 nM: compound 1 nM; for BTK degradation (%) 10 nM: compound 10 nM; for BTK degradation (%) 100 nM: compound 100 nM
Outline: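 TMD-8 cells (1×10^6/mL) were treated for 24 h with compound at 0.1, 1, 10 μM or 0.0001–0.1 μM, with DMSO as vehicle control. RIPA lysates were normalized by BCA assay. BTK was detected by Western blot with anti-BTK, using GAPDH or β-actin as loading controls, and imaged on LI-COR Odyssey.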

T1 sequence (Q06187 whole entry): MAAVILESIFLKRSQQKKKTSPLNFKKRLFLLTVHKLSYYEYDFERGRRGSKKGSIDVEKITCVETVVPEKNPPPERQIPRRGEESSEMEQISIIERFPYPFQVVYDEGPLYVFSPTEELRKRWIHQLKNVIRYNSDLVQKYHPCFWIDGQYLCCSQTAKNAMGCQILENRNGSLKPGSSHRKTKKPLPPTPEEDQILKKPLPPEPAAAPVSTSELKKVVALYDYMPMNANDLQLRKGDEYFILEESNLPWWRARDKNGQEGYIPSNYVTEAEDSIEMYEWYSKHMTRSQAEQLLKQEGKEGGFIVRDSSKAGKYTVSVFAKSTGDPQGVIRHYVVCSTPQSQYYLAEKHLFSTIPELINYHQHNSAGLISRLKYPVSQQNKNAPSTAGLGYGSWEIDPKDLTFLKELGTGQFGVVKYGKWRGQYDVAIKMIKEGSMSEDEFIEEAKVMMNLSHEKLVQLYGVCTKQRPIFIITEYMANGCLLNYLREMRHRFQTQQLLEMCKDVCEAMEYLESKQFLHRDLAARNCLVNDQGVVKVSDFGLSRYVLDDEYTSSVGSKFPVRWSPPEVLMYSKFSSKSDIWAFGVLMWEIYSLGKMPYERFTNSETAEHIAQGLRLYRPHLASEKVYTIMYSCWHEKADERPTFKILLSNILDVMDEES

BTK degradation (%) 1 nM | BTK degradation (%) 10 nM | BTK degradation (%) 100 nM | Structure (SMILES)
54.5% | 92.5% | 99% | Cc1cc(-c2ccnc(Nc3cnn(C4CCN(CC5CCN(c6ccc7c(c6)C(=O)N(C6CCC(=O)NC6=O)C7=O)CC5)CC4)c3)n2)ccc1CNC(=O)c1cnn(C(C)(C)C)c1 (stereo not drawn) [Example 37, 1-(tert-butyl)-N-(4-(2-((1-(1-((1-(2-(2,6-dioxopiperidin-3-yl)-1,3-dioxoisoindolin-5-yl)piperidin-4-yl)methyl)piperidin-4-yl)-1H-pyrazol-4-yl)amino)pyrimidin-4-yl)-2-methylbenzyl)-1H-pyrazole-4-carboxamide]
72.5% | 96% | 98.5% | Cc1cc(-c2ccnc(Nc3cnn(C4CCN(CC5CN(c6ccc7c(c6)C(=O)N(C6CCC(=O)NC6=O)C7=O)C5)CC4)c3)n2)ccc1CNC(=O)c1cnn(C(C)(C)C)c1 (stereo not drawn) [Example 38, 1-(tert-butyl)-N-(4-(2-((1-(1-((1-(2-(2,6-dioxopiperidin-3-yl)-1,3-dioxoisoindolin-5-yl)azetidin-3-yl)methyl)piperidin-4-yl)-1H-pyrazol-4-yl)amino)pyrimidin-4-yl)-2-methylbenzyl)-1H-pyrazole-4-carboxamide]
65.5% | 93.5% | 98.5% | Cc1cc(-c2ccnc(Nc3cnn(C4CCN(CC5CCN(c6ccc7c(c6)C(=O)N(C6CCC(=O)NC6=O)C7=O)CC5)CC4)c3)n2)ccc1CNC(=O)c1cn(C(C)(C)C)nn1 (stereo not drawn) [Example 39, 1-(tert-butyl)-N-(4-(2-((1-(1-((1-(2-(2,6-dioxopiperidin-3-yl)-1,3-dioxoisoindolin-5-yl)piperidin-4-yl)methyl)piperidin-4-yl)-1H-pyrazol-4-yl)amino)pyrimidin-4-yl)-2-methylbenzyl)-1H-1,2,3-triazole-4-carboxamide]
69.5% | 95.5% | 98% | Cc1cc(-c2ccnc(Nc3cnn(C4CCN(CC5CN(c6ccc7c(c6)C(=O)N(C6CCC(=O)NC6=O)C7=O)C5)CC4)c3)n2)ccc1CNC(=O)c1cn(C(C)(C)C)nn1 (stereo not drawn) [Example 40, 1-(tert-butyl)-N-(4-(2-((1-(1-((1-(2-(2,6-dioxopiperidin-3-yl)-1,3-dioxoisoindolin-5-yl)azetidin-3-yl)methyl)piperidin-4-yl)-1H-pyrazol-4-yl)amino)pyrimidin-4-yl)-2-methylbenzyl)-1H-1,2,3-triazole-4-carboxamide]
81.5% | 100.0% | 100.0% | Cc1cc(-c2ccnc(Nc3ccc(C4CN(CC5CCN(c6ccc7c(c6)C(=O)N(C6CCC(=O)NC6=O)C7=O)CC5)C4)cc3)n2)ccc1CNC(=O)N1CC(OC(C)C)C1 (stereo not drawn) [Example 41, N-(4-(2-((4-(1-((1-(2-(2,6-dioxopiperidin-3-yl)-1,3-dioxoisoindolin-5-yl)piperidin-4-yl)methyl)azetidin-3-yl)phenyl)amino)pyrimidin-4-yl)-2-methylbenzyl)-3-isopropoxyazetidine-1-carboxamide]
60.5% | 97.5% | 100.0% | Cc1cc(-c2ccnc(Nc3ccc(N4CCN(CC5CCN(c6cccc(OC7CCC(=O)NC7=O)c6)CC5)CC4)cc3)n2)ccc1CNC(=O)N1CC(OC(C)C)C1 (stereo not drawn) [Example 42, N-(4-(2-((4-(4-((1-(3-((2,6-dioxopiperidin-3-yl)oxy)phenyl)piperidin-4-yl)methyl)piperazin-1-yl)phenyl)amino)pyrimidin-4-yl)-2-methylbenzyl)-3-isopropoxyazetidine-1-carboxamide]
83.0% | 100.0% | 100.0% | Cc1cc(-c2ccnc(Nc3ccc(N4CCN(CC5CCN(c6ccc(OC7CCC(=O)NC7=O)cc6)CC5)CC4)cc3)n2)ccc1CNC(=O)N1CC(OC(C)C)C1 (stereo not drawn) [Example 43, N-(4-(2-((4-(4-((1-(4-((2,6-dioxopiperidin-3-yl)oxy)phenyl)piperidin-4-yl)methyl)piperazin-1-yl)phenyl)amino)pyrimidin-4-yl)-2-methylbenzyl)-3-isopropoxyazetidine-1-carboxamide]
66.0% | 95.0% | 99.0% | Cc1cc(-c2ccnc(Nc3ccc(C4CCN(CC5CN(c6ccc7c(c6)C(=O)N(C6CCC(=O)NC6=O)C7=O)C5)CC4)cc3)n2)ccc1CNC(=O)c1cnn(C(C)C)c1 (stereo not drawn) [Example 44, N-(4-(2-((4-(1-((1-(2-(2,6-dioxopiperidin-3-yl)-1,3-dioxoisoindolin-5-yl)azetidin-3-yl)methyl)piperidin-4-yl)phenyl)amino)pyrimidin-4-yl)-2-methylbenzyl)-1-isopropyl-1H-pyrazole-4-carboxamide]
45.5% | 89.5% | 98.0% | Cc1cc(-c2ccnc(Nc3ccc(C4CCN(CC5CN(c6ccc7c(c6)C(=O)N(C6CCC(=O)NC6=O)C7=O)C5)CC4)cc3)n2)ccc1CNC(=O)c1cnn(C(C)(C)C)c1 (stereo not drawn) [Example 45, 1-(tert-butyl)-N-(4-(2-((4-(1-((1-(2-(2,6-dioxopiperidin-3-yl)-1,3-dioxoisoindolin-5-yl)azetidin-3-yl)methyl)piperidin-4-yl)phenyl)amino)pyrimidin-4-yl)-2-methylbenzyl)-1H-pyrazole-4-carboxamide]
46.5% | 91.0% | 98.0% | Cc1cc(-c2ccnc(Nc3ccc(C4CCN(CC5CN(c6ccc7c(c6)C(=O)N(C6CCC(=O)NC6=O)C7=O)C5)CC4)cc3)n2)ccc1CNC(=O)c1cn(C(C)(C)C)nn1 (stereo not drawn) [Example 46, 1-(tert-butyl)-N-(4-(2-((4-(1-((1-(2-(2,6-dioxopiperidin-3-yl)-1,3-dioxoisoindolin-5-yl)azetidin-3-yl)methyl)piperidin-4-yl)phenyl)amino)pyrimidin-4-yl)-2-methylbenzyl)-1H-1,2,3-triazole-4-carboxamide]
22.5% | 93.5% | 99.5% | Cc1cc(-c2ccnc(Nc3ccc(C4CCN(CC5CCN(c6ccc(OC7CCC(=O)NC7=O)cc6)CC5)CC4)cc3)n2)ccc1CNC(=O)N1CC(OC(C)C)C1 (stereo not drawn) [Example 47, N-(4-(2-((4-(1-((1-(4-((2,6-dioxopiperidin-3-yl)oxy)phenyl)piperidin-4-yl)methyl)piperidin-4-yl)phenyl)amino)pyrimidin-4-yl)-2-methylbenzyl)-3-isopropoxyazetidine-1-carboxamide]
53.5% | 94.5% | 99.0% | Cc1cc(-c2ccnc(Nc3ccc(N4CCN(CC5CCN(c6ccc(OC7CCC(=O)NC7=O)cc6)CC5)CC4)cc3)n2)ccc1CNC(=O)c1cnn(C(C)C)c1 (stereo not drawn) [Example 48, N-(4-(2-((4-(4-((1-(4-((2,6-dioxopiperidin-3-yl)oxy)phenyl)piperidin-4-yl)methyl)piperazin-1-yl)phenyl)amino)pyrimidin-4-yl)-2-methylbenzyl)-1-isopropyl-1H-pyrazole-4-carboxamide]
